Where a name gives a salt, the structure may show the parent alone. Read-outs that look alike come from different tables or passages of the source.
Key:
Assay type in all cases: biochemical
[1] = biological target: T1, human JAK1 (a.a. 837-1142) (Homo sapiens, UniProt P23458); experiment: In vitro JAK kinase assay (HTRF, phosphorylation of a biotinylated peptide), JAK1; conditions: read-out: JAK1 IC50
T1 construct: human JAK1 (a.a. 837-1142); His tag (N); made in house; host or cells: insect cells (baculovirus)
In short: (§1)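 Kinase reactions ran at room temperature for 1 h with ATP matched per isoform (JAK1 90 μM, JAK2 30 μM, JAK3 3 μM). After an EDTA stop, the phosphorylated biotin-peptide was read by HTRF using Eu-Py20 and SA-APC after 40 min binding.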

[2] = biological target: TYK2 (Homo sapiens, UniProt P29597); experiment: TYK2 kinase inhibition (Table A1)
[3] = biological target: T2, human JAK2 (a.a. 828-1132) (Homo sapiens, UniProt O60674); experiment: In vitro JAK kinase assay (HTRF, phosphorylation of a biotinylated peptide), JAK2
T2 construct: JAK2 (a.a. 828-1132); His tag (N); made in house; host or cells: insect cells (baculovirus)
In short: as §1

[4] = biological target: T3, human JAK3 (a.a. 781-1124) (Homo sapiens, UniProt P52333); experiment: In vitro JAK kinase assay (HTRF, phosphorylation of a biotinylated peptide), JAK3
T3 construct: JAK3 (a.a. 781-1124); His tag (N); made in house; host or cells: insect cells (baculovirus)
In short: as §1

[5] = biological target: T4, Recombinant Human Anaplastic Lymphoma Kinase (Homo sapiens, UniProt Q9UM73); experiment: ALK HTRF kinase assay; conditions: for IC50: Table B1, cells without percent sign
T4 construct: purchased Invitrogen, Carlsbad, Calif
In short: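 IC50 was obtained from a logistic fit of signal versus log inhibitor concentration, using pre- and post-transition baselines and a Hill slope. The signal reported tyrosine phosphorylation of a biotinylated peptide by recombinant human kinase, detected as Eu-to-APC energy transfer.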

[6] = compound at a concentration of 500 nM or 1 mM (not specified), cells shown as percentage
[7] = method AA1 (90 μM ATP) or AA2 (1000 μM ATP), not stated per value
[8] = method AA1 (30 μM ATP) or AA2 (1000 μM ATP), not stated per value
[9] = method AA1 (3 μM ATP) or AA2 (1000 μM ATP), not stated per value
[10] = compound at 500 nM or 1 mM, 90 μM ATP

Sequence of TYK2 (P29597 whole entry): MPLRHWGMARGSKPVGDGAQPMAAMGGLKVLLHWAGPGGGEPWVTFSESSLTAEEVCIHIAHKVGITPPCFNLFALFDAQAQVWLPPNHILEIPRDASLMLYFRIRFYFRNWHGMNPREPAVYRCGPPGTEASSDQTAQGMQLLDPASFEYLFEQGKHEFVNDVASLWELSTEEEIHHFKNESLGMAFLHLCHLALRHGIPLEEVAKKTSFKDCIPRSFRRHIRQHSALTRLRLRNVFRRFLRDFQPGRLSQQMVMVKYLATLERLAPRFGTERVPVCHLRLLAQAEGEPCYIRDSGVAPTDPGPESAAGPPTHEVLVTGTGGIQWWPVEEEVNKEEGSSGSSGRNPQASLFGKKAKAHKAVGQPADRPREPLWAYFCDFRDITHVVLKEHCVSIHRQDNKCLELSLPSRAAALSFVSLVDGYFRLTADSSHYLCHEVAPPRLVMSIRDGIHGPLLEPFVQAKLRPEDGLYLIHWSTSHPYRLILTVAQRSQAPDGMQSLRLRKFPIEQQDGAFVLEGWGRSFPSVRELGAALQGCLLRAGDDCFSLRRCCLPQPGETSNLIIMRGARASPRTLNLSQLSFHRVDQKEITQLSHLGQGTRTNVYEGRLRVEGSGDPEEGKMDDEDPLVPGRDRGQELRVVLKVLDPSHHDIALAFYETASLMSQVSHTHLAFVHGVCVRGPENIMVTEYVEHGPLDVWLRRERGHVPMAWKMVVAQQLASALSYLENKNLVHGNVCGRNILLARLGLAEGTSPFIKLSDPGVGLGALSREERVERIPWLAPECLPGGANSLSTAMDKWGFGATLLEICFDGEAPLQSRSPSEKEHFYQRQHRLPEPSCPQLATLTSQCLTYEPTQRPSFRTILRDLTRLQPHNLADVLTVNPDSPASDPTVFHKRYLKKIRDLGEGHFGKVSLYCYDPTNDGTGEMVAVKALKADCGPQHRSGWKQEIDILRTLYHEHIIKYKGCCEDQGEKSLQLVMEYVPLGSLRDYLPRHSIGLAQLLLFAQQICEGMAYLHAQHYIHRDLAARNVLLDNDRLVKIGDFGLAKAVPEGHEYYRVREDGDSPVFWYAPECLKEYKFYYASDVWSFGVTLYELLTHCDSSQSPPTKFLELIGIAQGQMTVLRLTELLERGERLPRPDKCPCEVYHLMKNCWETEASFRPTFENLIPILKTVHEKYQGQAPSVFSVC
T2 sequence (O60674 828-1132): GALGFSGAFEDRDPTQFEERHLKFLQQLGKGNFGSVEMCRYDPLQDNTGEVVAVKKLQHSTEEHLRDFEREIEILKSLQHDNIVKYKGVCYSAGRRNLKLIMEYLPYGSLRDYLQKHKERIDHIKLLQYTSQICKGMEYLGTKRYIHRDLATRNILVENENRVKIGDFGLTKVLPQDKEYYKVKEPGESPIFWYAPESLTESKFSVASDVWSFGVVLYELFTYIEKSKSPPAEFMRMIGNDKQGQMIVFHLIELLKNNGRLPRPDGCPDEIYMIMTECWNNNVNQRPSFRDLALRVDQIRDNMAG
T4 sequence (Q9UM73 19-1620): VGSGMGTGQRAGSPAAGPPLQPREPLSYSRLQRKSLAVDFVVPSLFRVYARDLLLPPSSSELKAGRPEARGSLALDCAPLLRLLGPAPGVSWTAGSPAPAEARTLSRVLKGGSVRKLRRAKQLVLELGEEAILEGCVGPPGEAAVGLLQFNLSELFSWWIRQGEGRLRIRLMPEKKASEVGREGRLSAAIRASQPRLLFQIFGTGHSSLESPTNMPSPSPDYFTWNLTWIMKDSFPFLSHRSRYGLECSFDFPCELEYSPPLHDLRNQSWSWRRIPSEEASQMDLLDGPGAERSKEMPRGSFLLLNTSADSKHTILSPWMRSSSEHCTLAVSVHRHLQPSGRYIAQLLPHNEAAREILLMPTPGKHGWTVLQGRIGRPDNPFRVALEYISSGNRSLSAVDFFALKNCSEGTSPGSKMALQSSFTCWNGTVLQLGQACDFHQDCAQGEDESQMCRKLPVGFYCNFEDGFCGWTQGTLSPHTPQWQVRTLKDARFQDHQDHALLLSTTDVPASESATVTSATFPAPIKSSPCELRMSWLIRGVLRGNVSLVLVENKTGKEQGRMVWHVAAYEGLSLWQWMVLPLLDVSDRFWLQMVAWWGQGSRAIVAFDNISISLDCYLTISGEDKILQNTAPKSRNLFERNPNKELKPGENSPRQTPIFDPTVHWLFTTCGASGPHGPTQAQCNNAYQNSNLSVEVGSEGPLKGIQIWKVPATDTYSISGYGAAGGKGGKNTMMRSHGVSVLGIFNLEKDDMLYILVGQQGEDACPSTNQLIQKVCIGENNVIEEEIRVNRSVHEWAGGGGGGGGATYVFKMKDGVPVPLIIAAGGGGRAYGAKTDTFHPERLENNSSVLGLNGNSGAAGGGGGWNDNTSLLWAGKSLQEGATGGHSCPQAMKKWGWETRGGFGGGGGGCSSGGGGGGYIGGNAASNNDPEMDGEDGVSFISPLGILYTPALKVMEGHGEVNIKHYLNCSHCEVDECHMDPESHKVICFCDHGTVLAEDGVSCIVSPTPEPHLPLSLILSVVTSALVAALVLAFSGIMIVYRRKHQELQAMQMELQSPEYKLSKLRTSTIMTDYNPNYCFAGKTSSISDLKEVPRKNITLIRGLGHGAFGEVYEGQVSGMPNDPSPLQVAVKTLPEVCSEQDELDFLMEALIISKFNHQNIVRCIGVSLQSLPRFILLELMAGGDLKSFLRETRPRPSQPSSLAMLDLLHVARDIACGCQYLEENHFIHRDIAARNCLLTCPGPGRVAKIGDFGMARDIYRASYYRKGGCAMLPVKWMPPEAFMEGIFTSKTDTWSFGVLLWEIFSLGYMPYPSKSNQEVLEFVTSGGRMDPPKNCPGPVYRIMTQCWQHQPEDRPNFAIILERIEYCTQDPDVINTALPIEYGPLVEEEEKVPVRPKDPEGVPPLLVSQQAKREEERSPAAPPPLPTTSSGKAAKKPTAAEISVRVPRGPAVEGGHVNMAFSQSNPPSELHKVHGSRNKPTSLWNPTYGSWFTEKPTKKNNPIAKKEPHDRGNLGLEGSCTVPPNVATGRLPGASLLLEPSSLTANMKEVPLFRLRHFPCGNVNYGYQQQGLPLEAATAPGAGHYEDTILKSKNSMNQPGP
T1 sequence (P23458 849-1154): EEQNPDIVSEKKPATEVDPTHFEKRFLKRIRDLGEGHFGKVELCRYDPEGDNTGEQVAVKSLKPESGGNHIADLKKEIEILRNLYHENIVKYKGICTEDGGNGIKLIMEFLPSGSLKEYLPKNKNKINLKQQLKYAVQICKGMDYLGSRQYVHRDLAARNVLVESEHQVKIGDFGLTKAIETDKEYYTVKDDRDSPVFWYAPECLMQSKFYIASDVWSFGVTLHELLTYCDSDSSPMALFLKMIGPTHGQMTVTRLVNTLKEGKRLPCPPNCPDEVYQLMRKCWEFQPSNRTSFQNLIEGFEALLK
T3 sequence (P52333 781-1124): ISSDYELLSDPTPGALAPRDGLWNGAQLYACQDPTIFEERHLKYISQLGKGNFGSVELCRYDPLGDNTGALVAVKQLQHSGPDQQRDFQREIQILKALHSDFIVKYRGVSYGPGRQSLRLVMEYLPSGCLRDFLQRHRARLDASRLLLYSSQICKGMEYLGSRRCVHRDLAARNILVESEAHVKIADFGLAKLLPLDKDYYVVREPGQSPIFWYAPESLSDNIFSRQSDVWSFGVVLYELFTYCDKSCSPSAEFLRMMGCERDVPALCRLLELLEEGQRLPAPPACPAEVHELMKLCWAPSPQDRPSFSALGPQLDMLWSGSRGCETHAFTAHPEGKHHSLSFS

IC50 ([1]; Table B1) [nM]	IC50 ([2]; Table B1) [nM]	IC50 ([3]; Table B1) [nM]	IC50 ([4]; Table B1) [nM]	ALK % of inhibition at a concentration of 500 nM or 1 mM [5, 6] [%]	IC50 [1, 7] [nM]	IC50 [2] [nM]	IC50 [3, 8] [nM]	IC50 [4, 9] [nM]	ALK % of inhibition at a concentration of 500 nM or 1 mM [5, 10] [%]	IC50 [5] [nM]	SMILES
70	206	173	184	11							O=C(Nc1cc2cc(c1)Nc1nc(ncc1Cl)Nc1cccc(c1)CC2)Nc1ccccc1F [Example B213, N-[6-Chloro-2,4,8,22-tetraazatetracyclo[14.3.1.1(3,7).1(9,13)]docosa-1(20),3(22),4,6,9(21),10,12,16,18-nonaen-11-yl]-N′-(2-fluorophenyl)urea trifluoroacetate]
					61	43	56	124	21		CC(C)(C)OC(=O)N1CCC(C(=O)Nc2ccc3cc2CCc2cccc(c2)Nc2ncc(Cl)c(n2)N3)CC1 [Example A27, tert-Butyl 4-({[6-chloro-2,4,8,22-tetraazatetracyclo[14.3.1.1(3,7).1(9,13)]docosa-1(20),3(22),4,6,9(21),10,12,16,18-nonaen-12-yl]amino}carbonyl)piperidine-1-carboxylate trifluoroacetate]
					6.9	84	72	> 200	35		Cc1cc(N2CCC(CC(=O)Nc3ccc4cc3CCc3cncc(c3)Nc3ncc(Cl)c(n3)N4)CC2)no1 [Example A247, N-[6-Chloro-2,4,8,18,22-pentaazatetracyclo[14.3.1.1(3,7).1(9,13)]docosa-1(20),3(22),4,6,9(21),10,12,16,18-nonaen-12-yl]-2-[1-(5-methylisoxazol-3-yl)piperidin-4-yl]acetamide bis(trifluoroacetate)]
2.2	19	7.9	50	39							O=C(Nc1ccc(Cl)nc1)Nc1ccc2cc1CCc1cccc(c1)Nc1ncc(Cl)c(n1)N2 [Example B121, N-(6-Chloropyridin-3-yl)-N′-[6-chloro-2,4,8,22-tetraazatetracyclo[14.3.1.1(3,7).1(9,13)]docosa-1(20),3(22),4,6,9(21),10,12,16,18-nonaen-12-yl]urea bis(trifluoroacetate)]
3.5	55	23	163	14							O=C(Nc1ccc2cc1CCc1cccc(c1)Nc1ncc(Cl)c(n1)N2)N[C@H]1CCN(Cc2ccccc2)C1 [Example B173, N-[(3S)-1-Benzylpyrrolidin-3-yl]-N′-[6-chloro-2,4,8,22-tetraazatetracyclo[14.3.1.1(3,7).1(9,13)]docosa-1(20),3(22),4,6,9(21),10,12,16,18-nonaen-12-yl]urea bis(trifluoroacetate)]
					1.5	3	5.8	58	28		CNC(=O)N1CCC(CC(=O)Nc2ccc3cc2CCc2cncc(c2)Nc2ncc(Cl)c(n2)N3)CC1 [Example A100, 4-(2-{[6-Chloro-2,4,8,18,22-pentaazatetracyclo[14.3.1.1(3,7).1(9,13)]docosa-1(20),3(22),4,6,9(21),10,12,16,18-nonaen-12-yl]amino}-2-oxoethyl)-N-methylpiperidine-1-carboxamide bis(trifluoroacetate)]
					15	> 200	100	> 200	34		COc1cccc(S(=O)(=O)N2CCC(CC(=O)Nc3ccc4cc3CCc3cncc(c3)Nc3ncc(Cl)c(n3)N4)CC2)c1 [Example A196, N-[6-Chloro-2,4,8,18,22-pentaazatetracyclo[14.3.1.1(3,7).1(9,13)]docosa-1(20),3(22),4,6,9(21),10,12,16,18-nonaen-12-yl]-2-{1-[(3-methoxyphenyl)sulfonyl]piperidin-4-yl}acetamide bis(trifluoroacetate)]
11	19	8.4	277							> 1000	Cc1cnc2nc1Nc1cccc(c1)CCc1cccc(c1)N2 [Example B2, 6-Methyl-2,4,8,22-tetraazatetracyclo[14.3.1.1(3,7).1(9,13)]docosa-1(20),3(22),4,6,9(21),10,12,16,18-nonaene trifluoroacetate]
3.9	13	4.6	33	17							O=C(Nc1ccc2cc1CCc1cccc(c1)Nc1ncc(Cl)c(n1)N2)Nc1cccc2ccccc12 [Example B124, N-[6-Chloro-2,4,8,22-tetraazatetracyclo[14.3.1.1(3,7).1(9,13)]docosa-1(20),3(22),4,6,9(21),10,12,16,18-nonaen-12-yl]-N′-1-naphthylurea trifluoroacetate]
6	30	8.6	103	35							Cc1csc(NC(=O)Nc2ccc3cc2CCc2cccc(c2)Nc2ncc(Cl)c(n2)N3)n1 [Example B249, N-[6-Chloro-2,4,8,22-tetraazatetracyclo[14.3.1.1(3,7).1(9,13)]docosa-1(20),3(22),4,6,9(21),10,12,16,18-nonaen-12-yl]-N′-(4-methyl-1,3-thiazol-2-yl)ureatrifluoroacetate]
					6.6	45	36	225	20		Cc1oncc1C(=O)N1CCC(CC(=O)Nc2ccc3cc2CCc2cncc(c2)Nc2ncc(Cl)c(n2)N3)CC1 [Example A131, N-[6-Chloro-2,4,8,18,22-pentaazatetracyclo[14.3.1.1(3,7).1(9,13)]docosa-1(20),3(22),4,6,9(21),10,12,16,18-nonaen-12-yl]-2-{1-[(5-methylisoxazol-4-yl)carbonyl]piperidin-4-yl}acetamide bis(trifluoroacetate)]
5.3	16	4.5	42							> 1000	CC(C)(C)NC(=O)Nc1ccc2cc1CCc1cccc(c1)Nc1ncc(Cl)c(n1)N2 [Example B87, N-(tert-Butyl)-N′-[6-chloro-2,4,8,22-tetraazatetracyclo[14.3.1.1(3,7).1(9,13)]docosa-1(20),3(22),4,6,9(21),10,12,16,18-nonaen-12-yl]urea trifluoroacetate]
0.25	0.35	0.1	0.33							100	O=S(=O)(Nc1ccc2cc1CCc1cccc(c1)Nc1ncc(Cl)c(n1)N2)c1cccc(Cl)c1 [Example B138, 3-Chloro-N-[6-chloro-2,4,8,22-tetraazatetracyclo[14.3.1.1(3,7).1(9,13)]docosa-1(20),3(22),4,6,9(21),10,12,16,18-nonaen-12-yl]benzenesulfonamide trifluoroacetate]
13	62	26	119	20							O=C(Nc1ncc(Cl)s1)Nc1ccc2cc1CCc1cccc(c1)Nc1ncc(Cl)c(n1)N2 [Example B252, N-[6-Chloro-2,4,8,22-tetraazatetracyclo[14.3.1.1(3,7).1(9,13)]docosa-1(20),3(22),4,6,9(21),10,12,16,18-nonaen-12-yl]-N′-(5-chloro-1,3-thiazol-2-yl)urea trifluoroacetate]
